Experimental findings from patent US11325899B2, “Benzofurane and benzothiophene derivatives as PGE2 receptor modulators” (IDORSIA PHARMACEUTICALS LTD, priority 2017, dated 2022) are described below.

Common to all, as to assay type: cell-based
The target of one experiment is T1, EP2 receptor (Homo sapiens, UniProt P43116).
T1 construct: SF295 glioblastoma cells express high endogenous EP2 and no EP4; host or cells: SF295 glioblastoma cells
As to the kind of experiment: hEP2 cAMP assay (SF295 glioblastoma cells, HTRF cAMP, PGE2 stimulation). The conditions noted are these: antagonistic activity. The procedure, abridged:
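SF295 glioblastoma cells with endogenous EP2 and no EP4, in HBSS/HEPES/BSA with 2 mM IBMX, pre-incubated 45 min at room temperature with compound, then stimulated 30 min with 75 nM PGE2 (EC80). cAMP measured by HTRF; IC50 fitted from duplicate % cAMP versus DMSO control.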
In general terms: Changes in cAMP serve as a functional read-out for many G protein-coupled receptors.

A further experiment concerns the target T2, PTGER4 (EP4) (Homo sapiens, UniProt P35408).
T2 construct: host or cells: HEK 293 (PathHunter PTGER4 b-arrestin cell line)
Kind of experiment: hEP4 b-arrestin assay (PathHunter HEK 293 PTGER4 b-arrestin cells). Conditions: antagonistic activity, beta-arrestin assay; read-out: hEP4 b-arr IC50. The procedure, abridged:
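PathHunter HEK 293 cells expressing ProLink-tagged human EP4 and EA-β-arrestin 2, seeded 24 h before. Compounds (10 μM–2 nM or 1 μM–0.2 nM) preincubated 15 min at 37 °C, then 20 nM PGE2 (EC80) for 120 min at 37 °C. β-gal complementation luminescence read; IC50 from duplicate dose-response curves versus DMSO control.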

A further experiment has as its target T3, PTGER2 (EP2) (Homo sapiens, UniProt P43116).
T3 construct: host or cells: HEK 293 (PathHunter PTGER2 b-arrestin cell line)
As to the kind of experiment: hEP2 b-arrestin assay (PathHunter HEK 293 PTGER2 b-arrestin cells). Conditions: antagonistic activity, beta-arrestin assay; read-out: hEP2 b-arr IC50. The procedure, abridged: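 PathHunter HEK293 cells with ProLink-tagged EP2 and EA-β-arrestin 2 preincubated 15 min at 37 °C with compound (10 μM-2 nM or 1 μM-0.2 nM), then stimulated 120 min with 5 μM PGE2 (EC80). β-gal complementation read by chemiluminescence; IC50 from duplicate dose-response versus DMSO.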

T2 sequence (P35408 whole entry): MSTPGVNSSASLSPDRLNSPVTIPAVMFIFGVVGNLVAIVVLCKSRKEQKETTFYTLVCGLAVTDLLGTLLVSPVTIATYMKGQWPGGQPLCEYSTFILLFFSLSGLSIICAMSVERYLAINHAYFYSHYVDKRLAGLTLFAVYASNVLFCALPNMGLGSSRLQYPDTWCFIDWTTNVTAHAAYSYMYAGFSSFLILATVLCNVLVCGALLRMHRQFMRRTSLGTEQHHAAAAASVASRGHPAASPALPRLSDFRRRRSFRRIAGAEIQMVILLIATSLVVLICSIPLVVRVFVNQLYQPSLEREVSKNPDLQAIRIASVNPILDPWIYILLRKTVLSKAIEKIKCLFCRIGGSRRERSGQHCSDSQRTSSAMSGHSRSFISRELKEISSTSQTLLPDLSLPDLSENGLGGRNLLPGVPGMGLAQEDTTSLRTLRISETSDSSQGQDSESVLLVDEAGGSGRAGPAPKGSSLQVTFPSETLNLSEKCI
T1 sequence (P43116 whole entry): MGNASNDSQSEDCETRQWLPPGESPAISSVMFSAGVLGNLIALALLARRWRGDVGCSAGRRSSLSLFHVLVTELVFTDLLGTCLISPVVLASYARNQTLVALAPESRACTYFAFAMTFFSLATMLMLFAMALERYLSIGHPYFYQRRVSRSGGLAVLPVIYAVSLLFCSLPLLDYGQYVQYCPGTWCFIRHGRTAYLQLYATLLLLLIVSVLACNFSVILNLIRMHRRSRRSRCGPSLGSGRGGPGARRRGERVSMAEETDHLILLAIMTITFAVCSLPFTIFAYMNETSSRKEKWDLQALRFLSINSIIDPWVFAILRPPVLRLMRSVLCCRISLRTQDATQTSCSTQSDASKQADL
T3 sequence (P43116 whole entry): as above

For `Cc1cc(-c2cc(NCCc3c(C)oc4c(C)cc(F)cc34)ncn2)sc1C(=O)O` [Example 2, 5-{6-[2-(5-Fluoro-2,7-dimethyl-benzofuran-3-yl)-ethylamino]-pyrimidin-4-yl}-3-methyl-thiophene-2-carboxylic acid], the IC50 (usually the concentration that inhibits the measured activity by half) against EP2 receptor came to 23 nM; at PTGER4 (EP4) it was 189 nM; on PTGER2 (EP2), 25 nM.

Turning to `Cc1cc(-c2cc(NCCc3c(C)sc4c(C)cccc34)ncn2)sc1C(=O)O` [Example 3, 5-{6-[2-(2,7-Dimethyl-benzo[b]thiophen-3-yl)-ethylamino]-pyrimidin-4-yl}-3-methyl-thiophene-2-carboxylic acid], the IC50 against EP2 receptor worked out at 18 nM; at PTGER4 (EP4), 202 nM; on PTGER2 (EP2) it was 18 nM.

Regarding `Cc1cc(-c2cc(NCCc3c(C)oc4c(C)cc(Cl)cc34)ncn2)sc1C(=O)O` [Example 4, 5-{6-[2-(5-Chloro-2,7-dimethyl-benzofuran-3-yl)-ethylamino]-pyrimidin-4-yl}-3-methyl-thiophene-2-carboxylic acid], the IC50 amounted to 33 nM on EP2 receptor, 262 nM at PTGER4 (EP4) and 11 nM at PTGER2 (EP2).

`CSc1cc(-c2cc(NCCc3c(C)sc4c(C)cccc34)ncn2)ccc1C(=O)O` [Example 14, 4-{6-[2-(2,7-Dimethyl-benzo[b]thiophen-3-yl)-ethylamino]-pyrimidin-4-yl}-2-methylsulfanyl-benzoic acid]: the values for the IC50 on EP2 receptor, at PTGER4 (EP4) and at PTGER2 (EP2) were 6 nM, 195 nM and 4 nM, respectively.

For `COc1ccc(Cl)c2c(CCNc3cc(-c4ccc(C(=O)O)c(SC)c4)ncn3)c(C)sc12` [Example 15, 4-{6-[2-(4-Chloro-7-methoxy-2-methyl-benzo[b]thiophen-3-yl)-ethylamino]-pyrimidin-4-yl}-2-methylsulfanyl-benzoic acid], the values for the concentration for half-maximal inhibition (IC50) on EP2 receptor, on PTGER4 (EP4) and on PTGER2 (EP2) were 21 nM, 168 nM and 6 nM, respectively.

Consider `CSc1cc(-c2cc(NCCc3c(C)oc4c(C)cc(F)cc34)ncn2)ccc1C(=O)O` [Example 16, 4-{6-[2-(5-Fluoro-2,7-dimethyl-benzofuran-3-yl)-ethylamino]-pyrimidin-4-yl}-2-methylsulfanyl-benzoic acid], for which the IC50 was 21 nM against EP2 receptor, 391 nM at PTGER4 (EP4) and 13 nM on PTGER2 (EP2).

For `CSc1cc(-c2cc(NCCc3c(C)sc4c(C)cc(F)cc34)ncn2)ccc1C(=O)O` [Example 17, 4-{6-[2-(5-Fluoro-2,7-dimethyl-benzo[b]thiophen-3-yl)-ethylamino]-pyrimidin-4-yl}-2-methylsulfanyl-benzoic acid], the IC50 against EP2 receptor came out at 9 nM; at PTGER4 (EP4) it was 248 nM; on PTGER2 (EP2), 5 nM.

In the case of `CSc1cc(-c2cc(NCCc3c(C)oc4ccccc34)ncn2)ccc1C(=O)O` [Example 18, 4-{6-[2-(2-Methyl-benzofuran-3-yl)-ethylamino]-pyrimidin-4-yl}-2-methylsulfanyl-benzoic acid], the results for the IC50 at EP2 receptor, on PTGER4 (EP4) and at PTGER2 (EP2) were 1 nM, 1200 nM and 1 nM, respectively.

As to `CSc1cc(-c2cc(NCCc3c(C)sc4c(C)ccc(Cl)c34)ncn2)ccc1C(=O)O` [Example 19, 4-{6-[2-(4-Chloro-2,7-dimethyl-benzo[b]thiophen-3-yl)-ethylamino]-pyrimidin-4-yl}-2-methylsulfanyl-benzoic acid], the half-maximal inhibitory concentration (IC50) on EP2 receptor was 83 nM; on PTGER4 (EP4), 414 nM; on PTGER2 (EP2) it was 12 nM.

Regarding `CSc1cc(-c2cc(NCCc3c(C)sc4c(Cl)ccc(Cl)c34)ncn2)ccc1C(=O)O` [Example 20, 4-{6-[2-(4,7-Dichloro-2-methyl-benzo[b]thiophen-3-yl)-ethylamino]-pyrimidin-4-yl}-2-methylsulfanyl-benzoic acid], the IC50 at EP2 receptor was determined as 26 nM; on PTGER4 (EP4), 762 nM; on PTGER2 (EP2), 30 nM.
